Results: the NIST ThermoML archive (doi:10.1016/j.jct.2013.10.016)
Numbers after ± are expanded uncertainties.

Test: wn = mass fraction of the nth substance listed
Settings: Wilhelmy plate method

Row | surface tension liquid-gas (293.2 K, w1 = 0.2) | surface tension liquid-gas (293.2 K, w1 = 0.25) | surface tension liquid-gas (293.2 K, w1 = 0.3) | surface tension liquid-gas (303.2 K, w1 = 0.2) | surface tension liquid-gas (303.2 K, w1 = 0.25) | surface tension liquid-gas (303.2 K, w1 = 0.3) | surface tension liquid-gas (313.2 K, w1 = 0.2) | surface tension liquid-gas (313.2 K, w1 = 0.25) | surface tension liquid-gas (313.2 K, w1 = 0.3) | surface tension liquid-gas (323.2 K, w1 = 0.2) | surface tension liquid-gas (323.2 K, w1 = 0.25) | surface tension liquid-gas (323.2 K, w1 = 0.3) | SMILES
1 | 62.6 ± 2 mN/m | 61.2 ± 2 mN/m | 60.3 ± 2 mN/m | 61.8 ± 2 mN/m | 60.6 ± 2 mN/m | 59.5 ± 2 mN/m | 60.2 ± 2 mN/m | 59.2 ± 2 mN/m | 58 ± 2 mN/m | 58.7 ± 2 mN/m | 57.7 ± 2 mN/m | 56.5 ± 2 mN/m | NCCO [2-aminoethan-1-ol] + O
2 | 65.1 ± 2 mN/m | 64.6 ± 2 mN/m | 62.8 ± 2 mN/m | 64.4 ± 2 mN/m | 62.7 ± 2 mN/m | 61.3 ± 2 mN/m | 63.9 ± 2 mN/m | 61.8 ± 2 mN/m | 60.4 ± 2 mN/m | 61.8 ± 2 mN/m | 59.6 ± 2 mN/m | 58.2 ± 2 mN/m | OCCNCCO [diethanolamine] + O
